Results reported in patent US7947733B2, “Phosphorylated pyrone analogs and methods” (Limerick BioPharma, priority 2007, dated 2011).
“And” between values parts separate entries of the source, which are not always exact repeats. Equal values may be shown once.

Columns and labels:
[1] = in vivo; cited from earlier work
kidney of rats = experiment: Renal pathology in rats co-administered with quercetin-3′-O-phosphate and tacrolimus; assay type: in vivo, rat; conditions: tacrolimus (Prograf) 0.5 mg/kg and inert vehicle, 25 days
Description: Tissue is removed from the kidney of rats treated with tacrolimus (Prograf®) at 0.5 mg/kg and inert vehicle, and from rats treated with tacrolimus (Prograf®) at 0.5 mg/kg and quercetin-3′-O-phosphate (Q-Phosphate) at 11 mg/kg, 28 mg/kg, and at 114 mg/kg for 25 days. […] The tissue from rats treated with Q-Phosphate and tacrolimus show no vacuoles.

rats = experiment: Blood glucose levels in rats co-administered with quercetin-3′-O-phosphate and tacrolimus; assay type: in vivo, rat; conditions: for Blood glucose, Mean change from all vehicle control / Blood glucose, Mean change from Day 1: Prograf 0.5 mg/kg i.p. + Vehicle 1; for Blood glucose, Mean: Prograf 0.5 mg/kg i.p. Day 1 to Day 25 + Vehicle 1, 5 rats; for Blood glucose, individual rats: Prograf 0.5 mg/kg i.p. once daily Day 1 to Day 25 + Vehicle 1 Day 11 to Day 25
Description: One set of 5 rats is treated from day 1 to day 25 with inert vehicle 2 intraperitoneally and treated from day 11 to day 25 with inert vehicle 1 intraperitoneally. […] A third set 5 of rats is treated from day 1 to day 25 with tacrolimus (Prograf®) intraperitoneally at 0.5 mg/kg, and treated from day 11 to day 25 intraperitoneally with quercetin-3′-O-phosphate (Q-Phosphate) at 114 mg/kg. The blood glucose level in the rats is measured on days 1, 10, 15, 20, and 25.

## O=c1c(O)c(-c2ccc(O)c(O)c2)oc2cc(O)cc(O)c12 [quercetin aglycone, quercetin]
[1]
  serum half-life: 19 to 25 h

## C=CC[C@@H]1/C=C(\C)C[C@H](C)C[C@H](OC)[C@H]2O[C@@](O)(C(=O)C(=O)N3CCCC[C@H]3C(=O)O[C@H](/C(C)=C/[C@@H]3CC[C@@H](O)[C@H](OC)C3)[C@H](C)[C@@H](O)CC1=O)[C@H](C)C[C@@H]2OC [Prograf ®, tacrolimus, reference compound]
Kidney of rats
  vacuolation of kidney tissue: significant vacuolation
rats; Day 1
  Blood glucose, Mean change from all vehicle control: -0.10 g/L
  Blood glucose, Mean: 1.27 g/L
  Blood glucose, individual rats: 1.16 g/l (2×) and 1.34 g/l and 1.22 g/l and 1.47 g/l
rats; Day 10
  Blood glucose, Mean change from Day 1: +0.22 g/l
  Blood glucose, Mean change from all vehicle control: +0.23 g/l
  Blood glucose, Mean: 1.49 g/L
  Blood glucose, individual rats: 1.30 g/L and 1.39 g/L and 1.40 g/L and 1.09 g/L and 2.25 g/L
rats; Day 15
  Blood glucose, Mean change from Day 1: +1.27 g/l
  Blood glucose, Mean change from all vehicle control: +1.27 g/l
  Blood glucose, Mean: 2.54 g/L
  Blood glucose, individual rats: 3.72 g/L and 1.67 g/L and 2.31 g/L and 1.97 g/L and 3.02 g/L
rats; Day 20
  Blood glucose, Mean change from Day 1: +1.66 g/l
  Blood glucose, Mean change from all vehicle control: +1.81 g/l
  Blood glucose, Mean: 2.93 g/L
  Blood glucose, individual rats: 2.79 g/L and 3.70 g/L and 2.97 g/L and 2.41 g/L and 2.77 g/L
rats; Day 25
  Blood glucose, Mean change from Day 1: +1.28 g/l
  Blood glucose, Mean change from all vehicle control: +1.38 g/l
  Blood glucose, Mean: 2.55 g/L
  Blood glucose, individual rats: 0.97 g/L and 3.16 g/L and 1.69 g/L and 2.98 g/L and 3.96 g/L
